7 molecules from ChEMBL document CHEMBL3352161, “Phorbaketals L-N, cytotoxic sesterterpenoids isolated from the marine sponge of the genus Phorbas” (Bioorg Med Chem Lett, 2014) can be followed below.

Common to all, as to format: functional, cell-based
The subject of one experiment is A498. Nature of the experiment: Cytotoxicity against human A498 cells after 72 hrs by MTT assay. To be noted: A498, 72 h. On the technique in general: Tetrazolium dyes change colour on reduction, which living cells bring about.
Experiment [1] can be described thus: Cytotoxicity against human PANC1 cells after 72 hrs by MTT assay. To be noted: PANC-1, 72 h.
For the next experiment, the system named is ACHN. The experiment is described as follows: Cytotoxicity against human ACHN cells after 72 hrs by MTT assay.

What is called IC50 is the point on the concentration scale where inhibition reaches its midpoint. The low end stands for inhibition by little substance, the high end for a need for much substance. `C=C(CCC=C(C)C)[C@H](O)[C@@H]1CC(C)=C[C@]2(C=C(CO)[C@H]3CC(=O)C(C)=C[C@H]3O2)O1`: the IC50 is 17.3 µM in the experiment with A498, 50 µM in experiment [1] and > 50 µM with ACHN.

On to `C=C(C)[C@@H](CC/C(C)=C/[C@@H]1CC(C)=C[C@]2(C=C(CO)[C@H]3CC(=O)C(C)=C[C@H]3O2)O1)OO`, for which the IC50 (with A498; in experiment [1]; in the experiment on ACHN) was > 50 µM in each case.

On to `C=C(CCC1OC1(C)C)[C@H](Br)[C@@H]1CC(C)=C[C@]2(C=C(CO)[C@H]3CC(=O)C(C)=C[C@H]3O2)O1` (stereo not given in full), for which the IC50 in the experiment with A498 turned out to be 18.7 µM; in experiment [1], 11.4 µM; in the experiment with ACHN, 24.4 µM.

With `CC(C)=CCC/C(C)=C/[C@@H]1CC(C)=C[C@]2(C=C(CO)[C@H]3CC(=O)C(C)=C[C@H]3O2)O1`, the IC50 in the experiment on A498 turned out to be 4.4 µM; in experiment [1] it was 13.5 µM; with ACHN, 3 µM.

Consider `O=c1[nH]cc(F)c(=O)[nH]1` [FLUOROURACIL], for which, in experiment [1], inhibition was half-maximal at 50 µM (IC50).

`CCN(CC)CCNC(=O)c1c(C)[nH]c(/C=C2\C(=O)Nc3ccc(F)cc32)c1C` [SUNITINIB MALATE] returned an IC50 in the experiment with ACHN of 2 µM.

Regarding `CO[C@H]1C[C@@H]2CC[C@@H](C)[C@@](O)(O2)C(=O)C(=O)N2CCCC[C@H]2C(=O)O[C@H]([C@H](C)C[C@@H]2CC[C@@H](OC(=O)C(C)(CO)CO)[C@H](OC)C2)CC(=O)[C@H](C)/C=C(\C)[C@@H](O)[C@@H](OC)C(=O)[C@H](C)C[C@H](C)/C=C/C=C/C=C/1C` [TEMSIROLIMUS], the IC50 in the experiment on A498 turned out to be 0.35 µM.
